Measurements from US20250304587A1, “WEE1 INHIBITOR, PREPARATION THEREFOR AND USE THEREOF” (JIANGSU TASLY DIYI PHARMACEUTICAL CO., LTD., priority 2022, published 2025).

Legend:
HUVEC cells = test: Cell Titer-Glo anti-proliferation, normal cells HUVEC; type: cell-based
Method: (§1) Compound solutions of different concentration gradients were prepared. […] The cell growth group without compound was used as a positive control (maximum signal control) and the medium was used as a negative control (minimum signal control), while ensuring that the final level of DMSO in each reaction well was 0.2%. After removing the medium from the 384-well plate, 25 μl of the configured compound at different concentrations was transferred into the well plate and the compound and cells were incubated in the cell incubator at 37° C. with 5% CO2 for 3 days.
(§2) The 384-well plates were removed from the cell incubator and allowed to equilibrate for 1 h to room temperature. 25 μl of Cell Titer-Glo assay was added to each well, lysed on a shaker for 2 min and then read out (Luminescence) using a BMG PHERAStar after 10 min incubation. Calculate the inhibition rate from the luminescence signal.
(§3) to calculate the rate of inhibition of the cells by different concentrations of the compounds. The IC50 of the compound on cell activity inhibition was calculated by fitting a log(inhibitor) vs. response-Variable slope model to GraphPad Prism 6. The fitted equation was: Y=Bottom+(Top-Bottom)/(1+10^((Log IC50−X)*HillSlope)), where Y represents the rate of inhibition and X represents the concentration of the known compound after Log.
(§4) B. Evaluation of the Anti-Proliferative Effect of Compounds by the Cell Titer-Glo Method on Normal Cells HUVEC and HK2.
(§5) The test method is the same as the anti-proliferative activity evaluation of tumor cells.

Wee1 protein = Wee1 protein (Homo sapiens (Human), UniProt P30291); test: TR-FRET binding of compound to Wee1 protein and Tracer 178; conditions: Tracer 178, read-out: IC50, inhibitory activity against Wee1 kinase
Method: First, solutions of the compounds in different concentration gradients were prepared. The compounds were dissolved in DMSO and the compounds were diluted 4 folds with a total of 10 dose points and 2 parallel replicates for each concentration.
The IC50 for inhibition of enzyme activity by the compounds was then calculated using GraphPad Prism 6 and fitted with a log (inhibitor) vs. response-Variable slope mode. The fitting equation was: Y=Bottom+(Top−Bottom)/(1+10^((Log IC50−X)*HillSlope)), where Y represents the percentage of residual enzyme activity known and X represents the known concentration of compound after the logarithm.

HK2 cells = test: Cell Titer-Glo anti-proliferation, normal cells HK2; type: cell-based
Method: as §1, §2, §3, §4, §5

HT-29 cells = test: Cell Titer-Glo anti-proliferation, HT-29 cells; type: cell-based, human; conditions: 3 days, read-out: Anti-proliferative activity HT-29 (IC50 class)
Method: (§6) A. Evaluation of the Anti-Proliferative Effect of Compounds on BxPC3, HT-29 and OVCAR-3 Cells by the Cell Titer-Glo Method
as §1, §2, §3

BxPC3 cells = test: Cell Titer-Glo anti-proliferation, BxPC3 cells; type: cell-based, human; conditions: 3 days, read-out: Anti-proliferative activity BxPC3 (IC50 class)
Method: as §6, §1, §2, §3

OVCAR-3 cells = test: Cell Titer-Glo anti-proliferation, OVCAR-3 cells; type: cell-based; conditions: 3 days, read-out: Anti-proliferative activity OVCAR-3 (IC50 class)
Method: as §6, §1, §2, §3

Caco-2 cells = test: Membrane permeability in Caco-2 model; type: in vitro ADME; conditions: for Efflux Ration: Caco2; for Papp A to B / Papp B to A: Caco2, 10 μM, 90 min
Method: Caco-2 cells were purchased from the American Model Tissue Cell Collection (Rockville, MD). The cell culture medium was modified Eagle's medium (MEM) containing 10% inactivated fetal bovine serum and 1% non-essential amino acids. […] The cells were incubated for 21-28 days after inoculation for transport experiments and the apparent permeability (Papp) of Lucifer Yellow was used to characterize and verify the compactness of the cell monolayer. […] After the incubation, dilute the samples on the apical side and basolateral side, and the concentrations of compounds on the apical and basolateral sides were detected by LC-MS/MS, and the concentrations of the compounds were quantified by standard curve.

Wee1 protein, sequence (P30291 whole entry): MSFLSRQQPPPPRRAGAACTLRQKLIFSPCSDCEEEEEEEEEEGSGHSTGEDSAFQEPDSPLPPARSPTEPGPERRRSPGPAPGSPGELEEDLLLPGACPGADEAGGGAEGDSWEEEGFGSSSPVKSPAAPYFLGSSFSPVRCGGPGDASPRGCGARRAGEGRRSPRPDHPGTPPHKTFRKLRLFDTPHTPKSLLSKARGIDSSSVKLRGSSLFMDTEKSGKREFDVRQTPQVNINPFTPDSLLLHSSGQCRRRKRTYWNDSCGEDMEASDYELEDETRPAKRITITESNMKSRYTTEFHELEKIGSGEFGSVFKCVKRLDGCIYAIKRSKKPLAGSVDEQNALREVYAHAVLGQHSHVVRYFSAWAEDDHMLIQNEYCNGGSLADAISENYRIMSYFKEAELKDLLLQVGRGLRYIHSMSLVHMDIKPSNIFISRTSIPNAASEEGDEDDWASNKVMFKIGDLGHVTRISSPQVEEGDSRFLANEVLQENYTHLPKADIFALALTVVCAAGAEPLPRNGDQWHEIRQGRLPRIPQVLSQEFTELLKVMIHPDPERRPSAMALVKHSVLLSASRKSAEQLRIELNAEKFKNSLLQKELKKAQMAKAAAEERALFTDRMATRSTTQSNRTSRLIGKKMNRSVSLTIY

IC50 (Wee1 protein) [nM]	IC50 (HT-29 cells) [nM]	IC50 (BxPC3 cells) [nM]	IC50 (OVCAR-3 cells) [nM]	Structure (SMILES)	IC50 (HUVEC cells) [nM]	IC50 (HK2 cells) [nM]	Efflux Ration (Caco-2 cells)	Papp A to B (Caco-2 cells)	Papp B to A (Caco-2 cells)
≤ 5	–	–	–	C=CCn1c(=O)c2cnc(Nc3ccc(N4CCC5(CCN(C)CC5)CC4)cc3)nc2n1-c1ccc2c(n1)[C@](C)(O)C1(CC2)CC1 (single isomer, unassigned) [Compound 44a]	1030	360	–	–	–
10 to 100	1000 to 2000	5000 to 10000	–	C=CCn1c(=O)c2cnc(Nc3ccc(N4CCN(C)CC4)cc3)nc2n1-c1ccc2c(c1)N(CC)C(=O)C21CC1 [Compound 1]	–	–	–	–	–
5 to 10	100 to 1000	100 to 1000	100 to 1000	C=CCn1c(=O)c2cnc(Nc3ccc(N4CCC5(CCN(C)CC5)CC4)cc3)nc2n1-c1ccc2c(n1)[C@H](O)C1(CC2)CC1 [Compound 38b]	–	–	–	–	–
≤ 5	100 to 1000	1000 to 2000	1000 to 2000	C=CCn1c(=O)c2cnc(Nc3ccc(N4CCN(C)[C@@H](C)C4)cc3)nc2n1-c1ccc2c(n1)C(O)(CC)C1(CC1)C2 (stereo partly drawn) [Compound 30]	–	–	–	–	–
≤ 5	1000 to 2000	2000 to 5000	2000 to 5000	C=CCn1c(=O)c2cnc(Nc3ccc(N4CCN(C)CC4)cc3)nc2n1-c1ccc2c(n1)[C@@H](O)C1(CC2)CC1 (single isomer, unassigned) [Compound 4a]	–	–	–	–	–
–	100 to 1000	100 to 1000	100 to 1000	C=CCn1c(=O)c2cnc(Nc3ccc(N4C[C@H]5CN(C)C[C@H]5C4)cc3)nc2n1-c1ccc2c(n1)C(O)(C(F)(F)F)C1(CC1)C2 (mixture of isomers) [Compound 55]	> 10000	930	–	–	–
5 to 10	100 to 1000	100 to 1000	100 to 1000	C=CCn1c(=O)c2cnc(Nc3ccc(N4CCC5(CCN(C)CC5)CC4)c(C)c3)nc2n1-c1ccc2c(n1)[C@H](O)C1(CC2)CC1 (single isomer, unassigned) [Compound 61b]	4460	490	–	–	–
≤ 5	100 to 1000	1000 to 2000	100 to 1000	C=CCn1c(=O)c2cnc(Nc3ccc(N4CCN(C)CC4)cc3)nc2n1-c1ccc2c3c(n(CC)c2n1)OCCC3 [Compound 17]	–	–	–	–	–
–	100 to 1000	100 to 1000	100 to 1000	C=CCn1c(=O)c2cnc(Nc3ccc(N4CCN(C(C)C)CC4)cc3)nc2n1-c1ccc2c(n1)[C@@H](O)C1(CC2)CC1 (single isomer, unassigned) [Compound 57b]	> 10000	920	–	–	–
5 to 10	100 to 1000	100 to 1000	100 to 1000	C=CCn1c(=O)c2cnc(Nc3ccc(N4CCC5(CCN(C)CC5)CC4)cc3)nc2n1-c1ccc2c(n1)[C@@H](O)C1(CC2)CC1 [Compound 37a]	–	–	–	–	–
–	100 to 1000	100 to 1000	100 to 1000	C=CCn1c(=O)c2cnc(Nc3ccc(N4CCC5(CCN(C)CC5)CC4)cc3)nc2n1-c1ccc2c(n1)C(O)(CC)C1(CC1)C2 (racemic) [Compound 27]	–	–	–	–	–
–	100 to 1000	100 to 1000	100 to 1000	C=CCn1c(=O)c2cnc(Nc3ccc(N4CC5CC(C4)N5C(C)C)cc3)nc2n1-c1ccc2c(n1)C(O)C1(CC2)CC1 (single isomer, unassigned) [Compound 39a]	–	–	–	–	–
–	100 to 1000	100 to 1000	1000 to 2000	C=CCn1c(=O)c2cnc(Nc3ccc(N4CCC(N(C)C)CC4)cc3)nc2n1-c1ccc2c(n1)C(O)C1(CC2)CC1 (stereo not drawn) [Compound 66b]	–	–	–	–	–
10 to 100	1000 to 2000	2000 to 5000	–	C=CCn1c(=O)c2cnc(Nc3ccc(N4CCN(C)CC4)cc3)nc2n1-c1ccc2c(n1)N(CC)C(=O)C21CCC1 [Compound 2]	–	–	–	–	–
≤ 5	100 to 1000	100 to 1000	100 to 1000	C=CCn1c(=O)c2cnc(Nc3ccc(N4CCC(N(C)C)CC4)c(C)c3)nc2n1-c1ccc2c(n1)[C@@H](O)C1(CC2)CC1 (single isomer, unassigned) [Compound 41b]	> 10000	550	–	–	–
–	100 to 1000	100 to 1000	100 to 1000	C=CCn1c(=O)c2cnc(Nc3ccc(N4C[C@H]5CN(C)C[C@H]5C4)cc3)nc2n1-c1ccc2c(n1)C(C)(O)C1(CC2)CC1 (mixture of isomers) [Compound 43]	–	–	–	–	–

Further lines, the molecule ahead of its results:

Structure (SMILES)	IC50 (Wee1 protein) [nM]	IC50 (HT-29 cells) [nM]	IC50 (BxPC3 cells) [nM]	IC50 (OVCAR-3 cells) [nM]	IC50 (HUVEC cells) [nM]	IC50 (HK2 cells) [nM]	Efflux Ration (Caco-2 cells)	Papp A to B (Caco-2 cells)	Papp B to A (Caco-2 cells)
C=CCn1c(=O)c2cnc(Nc3ccc(N4CCC(N(C)C)CC4)cc3)nc2n1-c1ccc2c(n1)[C@@](C)(O)C1(CC2)CC1 [Compound 65a]	5 to 10	100 to 1000	100 to 1000	100 to 1000	> 10000	700	9.55	0.96 10^−6 cm/s	9.17 10^−6 cm/s
C=CCn1c(=O)c2cnc(Nc3ccc(N4CCN(C)[C@@H](C)C4)cc3)nc2n1-c1ccc2c(n1)[C@@H](O)C1(CC2)CC1 (single isomer, unassigned) [Compound 56b]	–	100 to 1000	100 to 1000	100 to 1000	> 10000	990	–	–	–
C=CCn1c(=O)c2cnc(Nc3ccc(N4CC5CC(C4)N5CC)cc3)nc2n1-c1ccc2c(n1)[C@](C)(O)C1(CC2)CC1 (single isomer, unassigned) [Compound 51a]	≤ 5	100 to 1000	100 to 1000	100 to 1000	–	–	–	–	–
C=CCn1c(=O)c2cnc(Nc3ccc(N4CCN(C)CC4)cc3)nc2n1-c1ccc2c(n1)[C@@](C)(O)C1(CC2)CC1 [Compound 6a]	≤ 5	100 to 1000	1000 to 2000	100 to 1000	–	–	–	–	–
C=CCn1c(=O)c2cnc(Nc3ccc(N4CCN(C)CC4)cc3)nc2n1-c1ccc2c(n1)C(C)(O)C1(CC1)C2 (single isomer, unassigned) [Compound 3b]	–	100 to 1000	1000 to 2000	100 to 1000	–	–	17.90	0.73 10^−6 cm/s	13.07 10^−6 cm/s
C=CCn1c(=O)c2cnc(Nc3ccc(N4CC5CC(C4)N5C(C)C)cc3)nc2n1-c1ccc2c(n1)[C@H](O)C1(CC2)CC1 [Compound 39b]	5 to 10	100 to 1000	100 to 1000	100 to 1000	> 10000	730	–	–	–
C=CCn1c(=O)c2cnc(Nc3ccc(N4CCN(C)CC4)cc3)nc2n1-c1ccc2c(n1)C(O)C1(CC2)CC1 (stereo not drawn) [Compound 4]	≤ 5	100 to 1000	1000 to 2000	1000 to 2000	–	–	–	–	–
C=CCn1c(=O)c2cnc(Nc3ccc(N4CCN(C)CC4)c(C)c3)nc2n1-c1ccc2c(n1)[C@@](C)(O)C1(CC2)CC1 (single isomer, unassigned) [Compound 23a]	≤ 5	100 to 1000	100 to 1000	100 to 1000	–	–	–	–	–
C=CCn1c(=O)c2cnc(Nc3ccc(N4CCN(C)CC4)cc3)nc2n1-c1ccc2c(n1)C(O)(CC)C1(CC1)C2 (racemic) [Compound 18]	–	100 to 1000	2000 to 5000	2000 to 5000	–	–	–	–	–
C=CCn1c(=O)c2cnc(Nc3ccc(N4CCC5(CCN(C)CC5)CC4)cc3)nc2n1-c1ccc2c(n1)[C@@H](O)C1(CC2)CC1 [Compound 38a]	–	100 to 1000	1000 to 2000	1000 to 2000	–	–	–	–	–
C=CCn1c(=O)c2cnc(Nc3ccc(N4CC5CC(C4)N5CCF)cc3)nc2n1-c1ccc2c(n1)[C@](C)(O)C1(CC2)CC1 (single isomer, unassigned) [Compound 59a]	–	100 to 1000	100 to 1000	100 to 1000	–	–	–	–	–
C=CCn1c(=O)c2cnc(Nc3ccc(N4CCOCC4)cc3)nc2n1-c1ccc2c(n1)C(O)(CC)C1(CC1)C2 (racemic) [Compound 24]	–	1000 to 2000	1000 to 2000	1000 to 2000	–	–	–	–	–
